In ChEMBL document CHEMBL1201862, “PubChem BioAssay data set” (2004):
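Interpolation was linear, between the two tested concentrations surrounding the appropriate level; five concentrations were tested over 48 hours in 96-well plates. GI50 marks 50% less growth.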 Calls of active or inactive are those of the source. Rule as the data show it: active = GI50 up to about 1.1 µM and inactive = higher.

Key:
Test in all cases: NCI anticancer screen, dose series, 48 h
[1] = test system: 786-0
[2] = test system: A498
[3] = test system: A549
[4] = test system: ACHN
[5] = test system: CAKI-1
[6] = test system: CCRF-CEM
[7] = test system: COLO 205
[8] = test system: DU-145
[9] = test system: EKVX
[10] = test system: HCC 2998
[11] = test system: HCT-116
[12] = test system: HCT-15
[13] = test system: HL-60
[14] = test system: HOP-62
[15] = test system: HOP-92
[16] = test system: HT-29
[17] = test system: Hs-578T
[18] = test system: IGROV-1
[19] = test system: K562
[20] = test system: KM12
[21] = test system: LOX IMVI
[22] = test system: M14
[23] = test system: MCF7
[24] = test system: MDA-MB-231
[25] = test system: MDA-MB-435
[26] = test system: MDA-N
[27] = test system: MOLT-4
[28] = test system: Malme-3M
[29] = test system: NCI-H226
[30] = test system: NCI-H23
[31] = test system: NCI-H460
[32] = test system: NCI-H522
[33] = test system: NCI/ADR-RES
[34] = test system: OVCAR-3
[35] = test system: OVCAR-4
[36] = test system: OVCAR-5
[37] = test system: OVCAR-8
[38] = test system: PC-3
[39] = test system: RXF 393
[40] = test system: SF-268
[41] = test system: SF-295
[42] = test system: SF-539
[43] = test system: SK-MEL-28
[44] = test system: SK-OV-3
[45] = test system: SN12C
[46] = test system: SNB-19
[47] = test system: SNB-75
[48] = test system: SR
[49] = test system: SW-620
[50] = test system: T47D
[51] = test system: TK-10
[52] = test system: U-251
[53] = test system: UACC-257
[54] = test system: UACC-62
[55] = test system: UO-31
[56] = test system: RPMI-8226
[57] = test system: SK-MEL-2
[58] = test system: SK-MEL-5

CC(=O)OC1CC[C@]2(C)C3CC[C@@]4(C)C(CCC4[C@H](C)CCCC(C)C)[C@@H]3CCC2(Br)C1 (stereo partly drawn)
GI50 [1]: 8.49 µM (inactive) | GI50 [2]: 8.13 µM (inactive) | GI50 [3]: 19.8 µM (inactive) | GI50 [4]: 9.91 µM (inactive) | GI50 [5]: 9.1 µM (inactive) | GI50 [6]: 10.2 µM (inactive) | GI50 [7]: 9.62 µM (inactive) | GI50 [8]: > 50 µM (inactive) | GI50 [9]: > 50 µM (inactive) | GI50 [10]: > 50 µM (inactive) | GI50 [11]: 9.29 µM (inactive) | GI50 [12]: 15.1 µM | GI50 [13]: 9.59 µM (inactive) | GI50 [14]: > 50 µM (inactive) | GI50 [15]: 19.7 µM (inactive) | GI50 [16]: 17.5 µM (inactive) | GI50 [17]: 10.1 µM (inactive) | GI50 [18]: 11.9 µM (inactive) | GI50 [19]: 15.5 µM (inactive) | GI50 [20]: 21.4 µM (inactive) | GI50 [21]: 11.6 µM (inactive) | GI50 [22]: 18.5 µM (inactive) | GI50 [23]: 10.5 µM (inactive) | GI50 [24]: 13.7 µM (inactive) | GI50 [25]: 8.83 µM (inactive) | GI50 [26]: 20.1 µM (inactive) | GI50 [27]: 9.98 µM (inactive) | GI50 [28]: 10.9 µM (inactive) | GI50 [29]: > 50 µM (inactive) | GI50 [30]: 13 µM (inactive) | GI50 [31]: 39.7 µM (inactive) | GI50 [32]: 10.3 µM (inactive) | GI50 [33]: 41 µM (inactive) | GI50 [34]: 14.5 µM (inactive) | GI50 [35]: 11.7 µM (inactive) | GI50 [36]: 24.2 µM (inactive) | GI50 [37]: 10.8 µM (inactive) | GI50 [38]: 10.9 µM (inactive) | GI50 [39]: 12.1 µM (inactive) | GI50 [40]: 11.7 µM (inactive) | GI50 [41]: 34.8 µM (inactive) | GI50 [42]: 9.18 µM (inactive) | GI50 [43]: 7.91 µM (inactive) | GI50 [44]: > 50 µM (inactive) | GI50 [45]: 22.5 µM (inactive) | GI50 [46]: 27.4 µM (inactive) | GI50 [47]: > 50 µM (inactive) | GI50 [48]: 9.44 µM (inactive) | GI50 [49]: 9.42 µM (inactive) | GI50 [50]: 14.1 µM (inactive) | GI50 [51]: 12.8 µM (inactive) | GI50 [52]: 17.9 µM (inactive) | GI50 [53]: 31.7 µM (inactive) | GI50 [54]: 21 µM (inactive) | GI50 [55]: 14 µM (inactive)

CN1CN(c2ccccc2)C2(CCN(CCCC3(c4cccs4)OCCO3)CC2)C1=O
GI50 [1]: > 100 µM (inactive) | GI50 [2]: > 100 µM (inactive) | GI50 [3]: > 100 µM (inactive) | GI50 [4]: > 100 µM (inactive) | GI50 [5]: > 100 µM (inactive) | GI50 [6]: > 100 µM (inactive) | GI50 [7]: > 100 µM (inactive) | GI50 [8]: > 100 µM (inactive) | GI50 [9]: > 100 µM (inactive) | GI50 [10]: > 100 µM (inactive) | GI50 [11]: > 100 µM (inactive) | GI50 [12]: > 100 µM | GI50 [13]: > 100 µM (inactive) | GI50 [14]: > 100 µM (inactive) | GI50 [15]: 28.7 µM (inactive) | GI50 [16]: 36.1 µM (inactive) | GI50 [17]: > 100 µM (inactive) | GI50 [18]: > 100 µM (inactive) | GI50 [19]: > 100 µM (inactive) | GI50 [20]: > 100 µM (inactive) | GI50 [21]: > 100 µM (inactive) | GI50 [22]: 96.8 µM (inactive) | GI50 [23]: > 100 µM (inactive) | GI50 [24]: > 100 µM (inactive) | GI50 [25]: > 100 µM (inactive) | GI50 [26]: > 100 µM (inactive) | GI50 [27]: > 100 µM (inactive) | GI50 [28]: > 100 µM (inactive) | GI50 [29]: > 100 µM (inactive) | GI50 [30]: 77.6 µM (inactive) | GI50 [31]: > 100 µM (inactive) | GI50 [32]: > 100 µM (inactive) | GI50 [33]: > 100 µM (inactive) | GI50 [34]: > 100 µM (inactive) | GI50 [35]: > 100 µM (inactive) | GI50 [36]: > 100 µM (inactive) | GI50 [37]: > 100 µM (inactive) | GI50 [38]: > 100 µM (inactive) | GI50 [56]: > 100 µM (inactive) | GI50 [39]: > 100 µM (inactive) | GI50 [40]: > 100 µM (inactive) | GI50 [41]: > 100 µM (inactive) | GI50 [42]: > 100 µM (inactive) | GI50 [43]: > 100 µM (inactive) | GI50 [57]: > 100 µM (inactive) | GI50 [58]: 91 µM (inactive) | GI50 [44]: > 100 µM (inactive) | GI50 [45]: > 100 µM (inactive) | GI50 [46]: > 100 µM (inactive) | GI50 [47]: 88.7 µM (inactive) | GI50 [48]: > 100 µM (inactive) | GI50 [49]: > 100 µM (inactive) | GI50 [50]: > 100 µM (inactive) | GI50 [51]: > 100 µM (inactive) | GI50 [52]: > 100 µM (inactive) | GI50 [53]: > 100 µM (inactive) | GI50 [54]: > 100 µM (inactive) | GI50 [55]: > 100 µM (inactive)
